The source of these data is US20120213758A1, “BIARYL PDE4 INHIBITORS FOR TREATING PULMONARY AND CARDIOVASCULAR DISORDERS” (DeCODE Genetics enf, priority 2007, published 2012).

In experiment [1] the test system is experimentally-induced interstitial cystitis. To be noted: rats; frequency of urination decreased, urine volume per urination increased; cited from earlier work.
Experiment [2] deals with patients suffering from asthma and COPD. The settings on record: effect of cilomilast disappeared on long-term trial; cited from earlier work.
Another experiment addresses hPDE4D (Homo sapiens, UniProt Q08499). The experiment in a line: In-vitro real-time enzyme-coupled spectrophotometric assay for PDE4 enzymes (hPDE4D).
In the next experiment the target is hPDE4B (Homo sapiens, UniProt Q07343). The experiment is described as follows: In-vitro real-time enzyme-coupled spectrophotometric assay for PDE4 enzymes (hPDE4B).
hPDE4B, sequence (Q07343 whole entry): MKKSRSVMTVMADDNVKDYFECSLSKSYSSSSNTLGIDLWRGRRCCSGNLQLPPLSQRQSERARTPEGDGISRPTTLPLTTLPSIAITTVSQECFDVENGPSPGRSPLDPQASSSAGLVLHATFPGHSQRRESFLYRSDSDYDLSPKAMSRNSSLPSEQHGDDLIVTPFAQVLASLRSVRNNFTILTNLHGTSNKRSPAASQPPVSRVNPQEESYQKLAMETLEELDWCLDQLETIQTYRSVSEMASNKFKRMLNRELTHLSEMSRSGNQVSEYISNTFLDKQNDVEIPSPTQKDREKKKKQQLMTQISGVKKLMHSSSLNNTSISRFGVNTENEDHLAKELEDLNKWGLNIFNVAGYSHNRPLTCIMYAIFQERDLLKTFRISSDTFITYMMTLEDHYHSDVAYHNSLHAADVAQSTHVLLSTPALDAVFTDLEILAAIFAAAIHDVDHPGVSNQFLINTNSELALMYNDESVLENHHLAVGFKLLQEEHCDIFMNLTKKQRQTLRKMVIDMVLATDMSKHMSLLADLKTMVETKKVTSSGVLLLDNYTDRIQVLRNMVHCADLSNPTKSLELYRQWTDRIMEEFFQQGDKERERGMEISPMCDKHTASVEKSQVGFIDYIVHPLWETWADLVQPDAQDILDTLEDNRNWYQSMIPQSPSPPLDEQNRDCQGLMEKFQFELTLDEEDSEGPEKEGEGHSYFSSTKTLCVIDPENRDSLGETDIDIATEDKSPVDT

Molecules are shown by their SMILES. Read-outs that look alike come from different tables or passages of the source.

hPDE4D, sequence (Q08499 whole entry): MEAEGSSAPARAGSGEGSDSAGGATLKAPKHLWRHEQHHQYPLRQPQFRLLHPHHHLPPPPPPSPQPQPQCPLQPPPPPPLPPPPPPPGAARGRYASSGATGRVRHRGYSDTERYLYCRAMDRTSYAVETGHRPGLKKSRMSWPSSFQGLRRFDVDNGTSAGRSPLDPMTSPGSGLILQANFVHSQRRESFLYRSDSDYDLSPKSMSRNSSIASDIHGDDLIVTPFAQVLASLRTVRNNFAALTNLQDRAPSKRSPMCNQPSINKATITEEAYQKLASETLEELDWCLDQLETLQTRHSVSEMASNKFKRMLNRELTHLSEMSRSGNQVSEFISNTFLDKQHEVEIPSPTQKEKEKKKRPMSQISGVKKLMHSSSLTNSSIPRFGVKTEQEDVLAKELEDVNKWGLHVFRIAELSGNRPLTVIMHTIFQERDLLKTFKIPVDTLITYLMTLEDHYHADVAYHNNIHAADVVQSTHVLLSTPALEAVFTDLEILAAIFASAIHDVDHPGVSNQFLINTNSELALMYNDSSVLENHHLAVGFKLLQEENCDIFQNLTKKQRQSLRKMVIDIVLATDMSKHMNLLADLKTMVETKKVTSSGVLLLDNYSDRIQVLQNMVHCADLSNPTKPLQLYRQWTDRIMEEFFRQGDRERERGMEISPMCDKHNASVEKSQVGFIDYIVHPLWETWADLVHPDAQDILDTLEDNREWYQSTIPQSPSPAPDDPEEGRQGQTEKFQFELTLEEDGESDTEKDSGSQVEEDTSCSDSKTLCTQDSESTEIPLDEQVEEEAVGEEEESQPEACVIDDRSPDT

`CCc1ccc2c(-c3cccc(Cl)c3)nc(=O)n(CC)c2n1` [YM976]: the “effect on experimentally-induced interstitial cystitis” value in experiment [1] is recorded as “ameliorate the effects of experimentally-induced interstitial cystitis in rats”.
Take `O=C(Nc1c(Cl)cncc1Cl)c1ccc(OC(F)F)c(OCC2CC2)c1` [roflumilast]: in experiment [2], the “clinical effect in asthma and COPD” value is “showed initially excellent results”.
In the case of `COc1ccc([C@]2(C#N)CC[C@@H](C(=O)O)CC2)cc1OC1CCCC1` [cilomilast], in experiment [2], the “clinical effect in asthma and COPD” value is reported as “showed initially excellent results”.
In the case of `COc1ccc(Cn2cncc2C(=O)O)c(F)c1-c1cccc(Cl)c1` [Example A-060, 3-(3′-Chloro-2-fluoro-6-methoxy-biphenyl-3-ylmethyl)-3H-imidazole-4-carboxylic acid], the IC50 against hPDE4D is under 5 µM; against hPDE4B, 5 to 20 µM.
For `COc1ccc(Cc2ccc(F)cc2)[n+]([O-])c1-c1cccc([N+](=O)[O-])c1` [Example B-080, 6-(4-Fluoro-benzyl)-3-methoxy-2-(3-nitro-phenyl)-pyridine 1-oxide], in that order: under 5 µM and under 5 µM.
On to `COc1ccc(C(O)c2ccc(NC(=O)NNC(C)=O)cc2)c(F)c1-c1cccc(Cl)c1` (centres unmarked) [Example A-065, 1-acetic amido-3-{4-[(3′-chloro-2-fluoro-6-methoxy-biphenyl-3-yl)-hydroxy-deutero-methyl]-phenyl}-urea], for which the IC50 is under 5 µM at hPDE4D (read-out: hPDE4D activity, enzyme-coupled NADH assay, absorbance at 340 nm) and 5 to 20 µM on hPDE4B (read-out: hPDE4B activity, enzyme-coupled NADH assay, absorbance at 340 nm).
Turning to `COc1ccc(Cc2ccc(NC(=O)NCC(=O)O)nc2)c(F)c1-c1cccc(Cl)c1` [Example A-028], the IC50 on hPDE4D and on hPDE4B was under 5 µM each time.
In the case of `COc1ccc(Cc2ccc(N3CC[C@H]3C(=O)O)nc2)c(F)c1-c1cccc(Cl)c1` [Example A-066, (S)-1-[5-(3′-chloro-2-fluoro-6-methoxy-biphenyl-3-ylmethyl)-pyridin-2-yl]-azetidine-2-carboxylic acid], the IC50 on hPDE4D and at hPDE4B was under 5 µM throughout.
As for `COc1ccc(Cn2cnc3c(=O)[nH]c(N)nc32)cc1-c1cccc([N+](=O)[O-])c1` [Example A-004, 2-Amino-9-(6-methoxy-3′-nitro-biphenyl-3-ylmethyl)-1,9-dihydro-purin-6-one], the IC50 on hPDE4D was 5 to 20 µM; on hPDE4B it was 20 to 40 µM.
The matching figures for `COc1ccc(Cc2ccc(N3CCC3C(=O)O)nc2)c(F)c1-c1cccc(Cl)c1` (centres unmarked) [Example A-054]: under 5 µM and under 5 µM.
For `COc1ccc(Cc2ccc(NS(N)(=O)=O)c(O)c2)c(F)c1-c1cccc(Cl)c1` [Example A-011], in that order: under 5 µM and 5 to 20 µM.
Consider `COc1ccc(Cc2ccc(NS(N)(=O)=O)cc2)c(F)c1-c1cccc(Cl)c1` [Example A-008], for which the IC50 against hPDE4D and at hPDE4B was under 5 µM each time.
Consider `COc1ccc(Cc2cnc(NS(N)(=O)=O)nc2)c(F)c1-c1cccc(Cl)c1` [Example A-012], for which the IC50 on hPDE4D and at hPDE4B was under 5 µM each time.
